The record followed here is PubChem BioAssay (NCI).

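Cells were grown in 96-well plates and exposed to each compound for 48 hours at five concentrations; endpoints were interpolated linearly between bracketing concentrations, or set to the highest concentration if not reached. The concentration for full growth arrest is given as TGI.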

In one test the test system is A549 NSCLC. Briefly: NCI tumour cell line growth inhibition, 48 h.
For `O=C(c1cc(Cl)cc(Cl)c1)N1CCN(C(=O)c2cc(Cl)cc(Cl)c2)C1=S`, the TGI was determined as 44.6 µM.

`C[C@@H]1C[C@](O)([C@@H](C)Cl)C(=O)O[C@@H]2CCN3CC=C(COC(=O)[C@]1(C)O)[C@H]23` showed a TGI above 100 µM.

`CC(=O)Nc1ccc(-c2nc3cc(Cl)ccc3o2)cc1` showed a TGI above 50 µM.

`O=C(/C=C/C=C/c1ccccc1)c1ccc2c(c1)CCCC2`: the TGI was above 100 µM.

The test system of a further test is RXF 393 renal. Briefly: NCI tumour cell line growth inhibition, 48 h.
For the molecule `O=C(c1cc(Cl)cc(Cl)c1)N1CCN(C(=O)c2cc(Cl)cc(Cl)c2)C1=S`, the TGI was found to be 26.4 µM.

For the molecule `CC(=O)Nc1ccc(-c2nc3cc(Cl)ccc3o2)cc1`, the TGI was above 50 µM.

A further test deals with CAKI-1 renal. Description: NCI tumour cell line growth inhibition, 48 h.
As for `O=C(c1cc(Cl)cc(Cl)c1)N1CCN(C(=O)c2cc(Cl)cc(Cl)c2)C1=S`, the TGI stood at 25.2 µM.

On to `C[C@@H]1C[C@](O)([C@@H](C)Cl)C(=O)O[C@@H]2CCN3CC=C(COC(=O)[C@]1(C)O)[C@H]23`, for which the TGI was above 100 µM.

`CC(=O)Nc1ccc(-c2nc3cc(Cl)ccc3o2)cc1` displayed a TGI above 50 µM.

The molecule `O=C(/C=C/C=C/c1ccccc1)c1ccc2c(c1)CCCC2` registered a TGI above 100 µM.

For another test, the system named is UACC-62 melanoma. Description: NCI tumour cell line growth inhibition, 48 h.
Molecule `O=C(c1cc(Cl)cc(Cl)c1)N1CCN(C(=O)c2cc(Cl)cc(Cl)c2)C1=S` had a TGI of 23.5 µM.

Regarding `C[C@@H]1C[C@](O)([C@@H](C)Cl)C(=O)O[C@@H]2CCN3CC=C(COC(=O)[C@]1(C)O)[C@H]23`, the TGI is above 100 µM.

`CC(=O)Nc1ccc(-c2nc3cc(Cl)ccc3o2)cc1` gave a TGI above 50 µM.

In the case of `O=C(/C=C/C=C/c1ccccc1)c1ccc2c(c1)CCCC2`, the TGI was above 100 µM.

A further test has as its system M14 melanoma. Briefly: NCI tumour cell line growth inhibition, 48 h.
`O=C(c1cc(Cl)cc(Cl)c1)N1CCN(C(=O)c2cc(Cl)cc(Cl)c2)C1=S` yielded a TGI of 27.3 µM.

`C[C@@H]1C[C@](O)([C@@H](C)Cl)C(=O)O[C@@H]2CCN3CC=C(COC(=O)[C@]1(C)O)[C@H]23` gave a TGI above 100 µM.

For the molecule `CC(=O)Nc1ccc(-c2nc3cc(Cl)ccc3o2)cc1`, the TGI was above 50 µM.

The molecule `O=C(/C=C/C=C/c1ccccc1)c1ccc2c(c1)CCCC2` yielded a TGI above 100 µM.

Another test relates to U251 CNS. Description: NCI tumour cell line growth inhibition, 48 h.
Molecule `O=C(c1cc(Cl)cc(Cl)c1)N1CCN(C(=O)c2cc(Cl)cc(Cl)c2)C1=S` yielded a TGI of 26.4 µM.

In turn, `C[C@@H]1C[C@](O)([C@@H](C)Cl)C(=O)O[C@@H]2CCN3CC=C(COC(=O)[C@]1(C)O)[C@H]23` came in with a TGI above 100 µM.

In the case of `CC(=O)Nc1ccc(-c2nc3cc(Cl)ccc3o2)cc1`, the TGI was above 50 µM.

In turn, `O=C(/C=C/C=C/c1ccccc1)c1ccc2c(c1)CCCC2` displayed a TGI above 100 µM.

The next test has as its system HCT-15 colon. Briefly: NCI tumour cell line growth inhibition, 48 h.
As to `O=C(c1cc(Cl)cc(Cl)c1)N1CCN(C(=O)c2cc(Cl)cc(Cl)c2)C1=S`, the TGI came out at 31 µM.

`C[C@@H]1C[C@](O)([C@@H](C)Cl)C(=O)O[C@@H]2CCN3CC=C(COC(=O)[C@]1(C)O)[C@H]23` returned a TGI above 100 µM.

`CC(=O)Nc1ccc(-c2nc3cc(Cl)ccc3o2)cc1`: the TGI is above 50 µM.

Regarding `O=C(/C=C/C=C/c1ccccc1)c1ccc2c(c1)CCCC2`, the TGI is above 100 µM.

For another test, the system named is 786-0 renal. Briefly: NCI tumour cell line growth inhibition, 48 h.
Take `O=C(c1cc(Cl)cc(Cl)c1)N1CCN(C(=O)c2cc(Cl)cc(Cl)c2)C1=S`: the TGI worked out at 7.58 µM.

`C[C@@H]1C[C@](O)([C@@H](C)Cl)C(=O)O[C@@H]2CCN3CC=C(COC(=O)[C@]1(C)O)[C@H]23` yielded a TGI above 100 µM.

On to `CC(=O)Nc1ccc(-c2nc3cc(Cl)ccc3o2)cc1`, for which the TGI is above 50 µM.

Molecule `O=C(/C=C/C=C/c1ccccc1)c1ccc2c(c1)CCCC2` showed a TGI above 100 µM.

The next test concerns SK-MEL-2 melanoma. Briefly: NCI tumour cell line growth inhibition, 48 h.
As to `O=C(c1cc(Cl)cc(Cl)c1)N1CCN(C(=O)c2cc(Cl)cc(Cl)c2)C1=S`, the TGI came to 34.1 µM.

`C[C@@H]1C[C@](O)([C@@H](C)Cl)C(=O)O[C@@H]2CCN3CC=C(COC(=O)[C@]1(C)O)[C@H]23` yielded a TGI above 100 µM.

As to `CC(=O)Nc1ccc(-c2nc3cc(Cl)ccc3o2)cc1`, the TGI was above 50 µM.

For `O=C(/C=C/C=C/c1ccccc1)c1ccc2c(c1)CCCC2`, the TGI was above 100 µM.

A further test deals with MALME-3M melanoma. Briefly: NCI tumour cell line growth inhibition, 48 h.
Turning to `O=C(c1cc(Cl)cc(Cl)c1)N1CCN(C(=O)c2cc(Cl)cc(Cl)c2)C1=S`, the TGI amounted to 25.5 µM.

Molecule `CC(=O)Nc1ccc(-c2nc3cc(Cl)ccc3o2)cc1` came in with a TGI above 50 µM.

Another test has as its system EKVX NSCLC. Briefly: NCI tumour cell line growth inhibition, 48 h.
Consider `O=C(c1cc(Cl)cc(Cl)c1)N1CCN(C(=O)c2cc(Cl)cc(Cl)c2)C1=S`, for which the TGI came out at 31.9 µM.

`C[C@@H]1C[C@](O)([C@@H](C)Cl)C(=O)O[C@@H]2CCN3CC=C(COC(=O)[C@]1(C)O)[C@H]23` returned a TGI above 100 µM.

For the molecule `CC(=O)Nc1ccc(-c2nc3cc(Cl)ccc3o2)cc1`, the TGI is above 50 µM.

In the case of `O=C(/C=C/C=C/c1ccccc1)c1ccc2c(c1)CCCC2`, the TGI is above 100 µM.

The next test deals with MCF7 breast. Briefly: NCI tumour cell line growth inhibition, 48 h.
For the molecule `O=C(c1cc(Cl)cc(Cl)c1)N1CCN(C(=O)c2cc(Cl)cc(Cl)c2)C1=S`, the TGI was determined as 12.5 µM.

For the molecule `C[C@@H]1C[C@](O)([C@@H](C)Cl)C(=O)O[C@@H]2CCN3CC=C(COC(=O)[C@]1(C)O)[C@H]23`, the TGI is above 100 µM.

The molecule `CC(=O)Nc1ccc(-c2nc3cc(Cl)ccc3o2)cc1` yielded a TGI above 50 µM.

On to `O=C(/C=C/C=C/c1ccccc1)c1ccc2c(c1)CCCC2`, for which the TGI is above 100 µM.

For another test, the system named is OVCAR-8 ovarian. Description: NCI tumour cell line growth inhibition, 48 h.
`O=C(c1cc(Cl)cc(Cl)c1)N1CCN(C(=O)c2cc(Cl)cc(Cl)c2)C1=S` yielded a TGI of 44.5 µM.

In the case of `C[C@@H]1C[C@](O)([C@@H](C)Cl)C(=O)O[C@@H]2CCN3CC=C(COC(=O)[C@]1(C)O)[C@H]23`, the TGI is above 100 µM.

As for `CC(=O)Nc1ccc(-c2nc3cc(Cl)ccc3o2)cc1`, the TGI is above 50 µM.

In the case of `O=C(/C=C/C=C/c1ccccc1)c1ccc2c(c1)CCCC2`, the TGI was above 100 µM.

For a further test, the system named is HL-60(TB) leukemia. Description: NCI tumour cell line growth inhibition, 48 h.
`O=C(c1cc(Cl)cc(Cl)c1)N1CCN(C(=O)c2cc(Cl)cc(Cl)c2)C1=S` came in with a TGI of 6.28 µM.

As for `C[C@@H]1C[C@](O)([C@@H](C)Cl)C(=O)O[C@@H]2CCN3CC=C(COC(=O)[C@]1(C)O)[C@H]23`, the TGI is above 100 µM.

`CC(=O)Nc1ccc(-c2nc3cc(Cl)ccc3o2)cc1` showed a TGI above 50 µM.

Another test relates to SR leukemia. Briefly: NCI tumour cell line growth inhibition, 48 h.
With `O=C(c1cc(Cl)cc(Cl)c1)N1CCN(C(=O)c2cc(Cl)cc(Cl)c2)C1=S`, the TGI was determined as 11.3 µM.

On to `C[C@@H]1C[C@](O)([C@@H](C)Cl)C(=O)O[C@@H]2CCN3CC=C(COC(=O)[C@]1(C)O)[C@H]23`, for which the TGI was above 100 µM.

The molecule `CC(=O)Nc1ccc(-c2nc3cc(Cl)ccc3o2)cc1` came in with a TGI above 50 µM.

As for `O=C(/C=C/C=C/c1ccccc1)c1ccc2c(c1)CCCC2`, the TGI was 87.9 µM.

The next test deals with RPMI-8226 leukemia. Briefly: NCI tumour cell line growth inhibition, 48 h.
`C[C@@H]1C[C@](O)([C@@H](C)Cl)C(=O)O[C@@H]2CCN3CC=C(COC(=O)[C@]1(C)O)[C@H]23` had a TGI above 100 µM.
